One data set has as its system HIF1-alpha. As to the kind of experiment: Measurement of the stabilization of HIF1-alpha in HEKEA cells (beta-galactosidase complementation). It is filed as cell-based, human. The following applies: HEKEA_HIF1-alphaPLBL cells, 6 hours under normoxia, luminescence; molar concentration that produces 50% of the maximum response of this same compound. The text has this: Furthermore, a subject of the invention is also a uniform test for the direct measurement by beta-galactosidase complementation of the amount of HIF1-alpha protein in the nucleus of cells, preferably HEK cells, after treating the said cells with one or more test compounds, which consists in: • (a) inoculating, preferably in 384-well plates, the said cells in a suitable culture medium, preferably 1% foetal calf serum (abbreviated as FCS); • (b) adding the test compound(s) at a suitable concentration in a suitable solvent to the cells previously inoculated in the said culture medium; preferably the test compounds are diluted in 0.1% FCS; • (c) incubating the said cells thus prepared in an indicator at about 37° C., advantageously for about 6 hours; • (d) lysing the cells with a lysis buffer containing a chemiluminescent substrate for beta-galactosidase; • (e) incubating in the absence of light, before reading and measuring the luminescence, which is a function of the beta-galactosidase activity.
The test is a cell test based on the principle of enzyme complementation, the enzyme used herein being beta-galactosidase. HEKEA cells are HEK cells stably expressing, and restricted in their nucleus, mutant beta-galactosidase (omega fragment, also known as EA) (line sold by DiscoverX). This construct makes it possible to obtain beta-galactosidase activity only when the protein comprising the Prolabel complementation fragment has migrated into the nucleus.
The protein of interest comprising the Prolabel fragment is in this case an HIF1-alpha or HIF1-alpha mutated at the two prolines 402 and 564 replaced with alanines, is C-terminal fused via molecular biology (DiscoverX vector sold by Clontech) with the small complementation peptide fragment (Prolabel or ED, about 4 kDa). The vector coding for the chimeric protein HIF1-alpha_Prolabel is then transfected into HEKEA cells to obtain stable clones (HEKEA_HIF1-alphaPLBL).
The amount of C-terminal Prolabel-“labelled” HIF1-alpha protein obtained after treating the cells to hypoxia or compounds that are potentially HIF activators is measured by adding to the cells a lysis buffer containing a chemiluminescent substrate for beta-galactosidase.
The measurement of the beta-galactosidase activity will be proportional to the amount of Prolabel and thus of HIF1-alpha that has migrated into the nucleus of the cells.
1.3.1 Experiment Plan • 1) Inoculation of the cells on D0 • 2) Adherence for 24 hours under normoxia • 3) Preparation and addition of the products (Biomek 2000 and FX) on D+1 • 4) Incubation under normoxia for 6 hours • 5) Reading of the plates (by luminescence)
The cells are inoculated with Multidrop in white, opaque-bottomed 384-well plates (Greiner ref 3704), in 30 μl of culture medium (1% FCS) a 10000 cells/well (cell plate).
The test products are prepared at 3×10^−2 M in 100% DMSO and then diluted to 3×10^−4 M in medium containing 0.1% FCS (10 μl in 990 μl of MEM). They are then deposited by hand into column 12 of a round-bottomed 96-well plate (200 μl of each compound) known as the dilution plate (dl). The complete DL plate of 3×10^−4 M to 10^−9 M is then prepared with Biomek 2000 (programme: range of 10 points in series). For the references and controls, 100 μl of DMEM containing 0.1% FCS are added to column 1, 100 μl of Deferoxamine 10^−3M to column 2, wells A B C D and 100 μl of Deferoxamine 5×10^−3 M to column 2, wells E F G H.
3.3 μL are taken from the DL plate by pipetting with a Biomek FX 96 and placed in horizontal duplicate (columns 1 to 24) in each 384-well cell plate (HEKEA_HIF1-alphaPLBL cell plate).
The cells are then placed for 6 hours in an incubator at 37° C. (ambient O2, 6% CO2).
The kit used is the Prolabel chemiluminescent kit (Ref 93-0001 DiscoverX). […]

The test system of the next data set is EPO. As to the kind of experiment: Measurement of the secretion of EPO by Hep3B hepatocytes (ELISA). It is filed as cell-based. The following applies: Homo sapiens, supernatant of Hep3B cells, 18 hours under normoxia, concentration that produces 50% of the maximum response of this same compound. As to the method: (§1) The test is an ELISA test for measuring VEGF and EPO in the supernatant of Hep3B cells treated under hypoxia or with deferoxamine as controls or with the potential HIF activators. The test was adapted to a 96-well plate, allowing greater compound screening capacity.
(§2) 2.3.1 Experiment Plan • 1) Inoculation of the cells on D0 • 2) Adherence for 6 hours under normoxia • 3) Preparation and addition of the products (Biomek 2000 and FX) • 4) Incubation under normoxia for 18 hours • 5) EPO and VEGF assay in the supernatant on D+1
(§3) The cells are subcultured into 100 μl of culture medium (10% FCS) in black, opaque-bottomed 96-well plates (reference Costar 3916) at 30000 cells/well, with Multidrop.
(§4) The test products are prepared at 10^−2M in 100% DMSO and then diluted to […] in medium containing 0.1% FCS (6 μl in 194 μl of MEM). 200 μl of each compound are deposited in column 12 of a 96-well plate. Dilution ranges from 3×10^−4M to 3×10^−8M are prepared with Biomek 2000 (programme: range of 9 points in series). 100 μl of MEM 0.1% FCS and Deferoxamine 5×10^−3M are added as controls to column 3 and, respectively, to wells A,B,C,D & wells E,F,G,H
(§5) The medium of the cells inoculated the day before into 96-well plates is changed for 90 μl of medium containing 0.1% FCS and 10 μl are distributed with FX 96 from the 96-well DL plates to the cell plates.
(§6) The cell plates thus treated are placed for 18 hours in an incubator at 37° C. (ambient O2, 6% CO2).
(§7) The supernatants (80 μl) of the Hep3B cells in the 96-well plates treated with the potential HIF activators are recovered with a multichannel pipette for simultaneous assay of the VEGF and the EPO by ELISA according to the supplier's instructions (Kit EPO Mesoscale (ref K15122B-2)).
(§8) The activating activity of a compound with respect to HIF is given by the concentration that produces 50% of the maximum response of this same compound in Table IV.
(ELISA stands for enzyme-linked immunosorbent assay.)

The test system of a further data set is VEGF. As to the kind of experiment: Measurement of the secretion of VEGF by Hep3B hepatocytes (ELISA). It is filed as cell-based. The following applies: Homo sapiens, supernatant of Hep3B cells, 18 hours under normoxia, concentration that produces 50% of the maximum response of this same compound. The protocol:
as §1, §2, §3, §4, §5, §6, §7, §8

Each structure is given as a SMILES string.

Broadly, the EC50 is the concentration at which the effect is half-maximal. Lower therefore signals a more potent agent. The melting point is the temperature, or range, at which the solid turns liquid. Turning to `O=c1c2c([nH]n1-c1ccccn1)CSC2` [Compound 1, 2-pyridin-2-yl-1,2,4,6-tetrahydro-3H-thieno[3,4-c]pyrazol-3-one], the melting point turned out to be 152 °C. In the data set on HIF1-alpha, this compound registered a half-maximal effective concentration (EC50) of 8800 nM. In addition, the response in the data set on EPO was half-maximal at 2900 nM (EC50). Further, the EC50 in the data set on VEGF was 3000 nM.

Take `CCN(c1ccccc1)S(=O)(=O)c1ccc(-n2[nH]c3c(c2=O)CSCC3)nc1` [Compound 13, N-ethyl-6-(3-oxo-1,4,6,7-tetrahydrothiopyrano[4,3-c]pyrazol-2(3H)-yl)-N-phenylpyridine-3-sulfonamide]: the melting point amounted to 176 °C. Further, the EC50 with HIF1-alpha worked out at 5200 nM. This compound displayed a 50% effective concentration (EC50) with EPO of 900 nM. In the data set with VEGF, this compound displayed a concentration for a half-maximal effect (EC50) of 1000 nM.

With `CCN(c1ccccc1)S(=O)(=O)c1ccc(-n2[nH]c3c(c2=O)CSC3)nc1` [Compound 9, N-ethyl-6-(3-oxo-4,6-dihydro-1H-thieno[3,4-c]pyrazol-2(3H)-yl)-N-phenylpyridine-3-sulfonamide], the melting point turned out to be 208 °C. The compound further showed an EC50 in the data set on HIF1-alpha of 1400 nM. In the data set with EPO, this compound displayed an EC50 of 700 nM. In addition, in the data set with VEGF, a half-maximal response (EC50) required 660 nM.

`CCN(c1ccccc1)S(=O)(=O)c1ccc(-n2[nH]c3c(c2=O)CN(C(C)=O)CC3)nc1` [Compound 29, 6-(5-acetyl-3-oxo-1,3,4,5,6,7-hexahydro-2H-pyrazolo[4,3-c]pyridin-2-yl)-N-ethyl-N-phenylpyridine-3-sulfonamide] returned a melting point of 118 °C. The EC50 in the data set on HIF1-alpha came out at 2500 nM. Moreover, in the data set with EPO, the EC50 was determined as 2500 nM. The compound also showed an EC50 with VEGF of 2600 nM.

Compound `O=c1c2c([nH]n1-c1ccc(S(=O)(=O)N3CCCCCC3)cn1)CSC2` [Compound 26, 2-[5-(azepan-1-ylsulfonyl)pyridin-2-yl]-1,2,4,6-tetrahydro-3H-thieno[3,4-c]pyrazol-3-one] returned a melting point of 236 °C. Moreover, the concentration for a half-maximal effect (EC50) in the data set on HIF1-alpha was determined as 1500 nM. Also, in the data set with EPO, the EC50 was 1000 nM. In the data set with VEGF, this compound yielded an EC50 of 1300 nM.

`CCN(c1ccccc1)S(=O)(=O)c1ccc(-n2[nH]c3c(c2=O)CN(C(=O)OC(C)(C)C)CC3)nc1` [Compound 28, tert-butyl 2-[5-[ethyl(phenyl)sulfamoyl]pyridin-2-yl]-3-oxo-1,2,3,4,6,7-hexahydro-5H-pyrazolo[4,3-c]pyridine-5-carboxylate] registered a melting point of 192 °C. This compound returned a 50% effective concentration (EC50) in the data set on HIF1-alpha of 1600 nM. The same compound displayed an EC50 in the data set on EPO of 1000 nM. This compound also returned an EC50 in the data set on VEGF of 1000 nM.

`CC(C)NS(=O)(=O)c1ccc(-n2[nH]c3c(c2=O)CSC3)nc1` [Compound 17, 6-(3-oxo-4,6-dihydro-1H-thieno[3,4-c]pyrazol-2(3H)-yl)-N-(propan-2-yl)pyridine-3-sulfonamide]: the melting point came out at 258 °C. The same compound registered an EC50 in the data set with HIF1-alpha of 10000 nM. The same compound returned an EC50 in the data set on EPO of 2900 nM. Besides, in the data set with VEGF, the EC50 worked out at 2900 nM.

Consider `O=c1c2c([nH]n1-c1ccc(S(=O)(=O)NCc3ccco3)cn1)CSC2` [Compound 19, N-(furan-2-ylmethyl)-6-(3-oxo-4,6-dihydro-1H-thieno[3,4-c]pyrazol-2(3H)-yl)pyridine-3-sulfonamide], for which the melting point stood at 238 °C. In addition, a half-maximal effect in the data set on HIF1-alpha (EC50) was put at 5500 nM. This compound came in with an EC50 with EPO of 2400 nM. In addition, in the data set on VEGF, a half-maximal effect (EC50) was put at 2400 nM.

Turning to `CN(c1ccccn1)S(=O)(=O)c1ccc(-n2[nH]c3c(c2=O)CSC3)nc1` [Compound 21, N-methyl-6-(3-oxo-4,6-dihydro-1H-thieno[3,4-c]pyrazol-2(3H)-yl)-N-pyridin-2-ylpyridine-3-sulfonamide], the melting point came out at 226 °C. The compound further returned an EC50 in the data set on HIF1-alpha of 8700 nM. Further, in the data set on EPO, the EC50 stood at 1400 nM. The EC50 in the data set with VEGF is 2400 nM.

Consider `O=c1c2c([nH]n1-c1ccc(S(=O)(=O)N3CCCC3)cn1)CSC2` [Compound 15, 2-[5-(pyrrolidin-1-ylsulfonyl)pyridin-2-yl]-1,2,4,6-tetrahydro-3H-thieno[3,4-c]pyrazol-3-one], for which the melting point came to 152 °C. In addition, in the data set on HIF1-alpha, the EC50 came out at 16000 nM. In addition, the EC50 in the data set on EPO was determined as 2800 nM. In the data set with VEGF, this compound registered an EC50 of 3000 nM.

The record behind these values is patent US8697731B2, “Derivatives of 2-pyridin-2-yl-pyrazol-3(2H)-one, preparation and therapeutic use thereof” (Sanofi, priority 2008, dated 2014).
